Assays:
[1] = tested on: MCF 7/DOX cells (doxorubicin resistant); test: MTT cytotoxicity assay, doxorubicin with or without glucosamine; type: cell-based, human
Protocol: (§1) Human breast cancer cell line MDA-231 (doxorubicin resistant) was purchased from ATCC. MCF-7/DOX (doxorubicin resistant) was obtained from Dr. Kenneth H. Cowan (University of Nebraska Medical Center, 986805 Nebraska Medical Center, Omaha, Nebr. 68198-6805, USA). These cell lines were maintained in media supplemented with 10% fetal bovine serum (Gibco BRL), 1 mM sodium pyruvate (Gibco BRL), and 100 U/ml penicillin-streptomycin (Gibco BRL) at 37° C. in a humid 5% CO2 atmosphere and subcultured every two or three days.
(§2) An MTT assay was conducted through […] analysis on the reduction of yellow tetrazolium salt into purple formazan in the mitochondria of viable cells. Cells were seeded at a population of 1×10^5 cells/well in 24-well plates. After incubation for 24 hrs, the cells were exposed to doxorubicin. This anticancer agent was administered at a dose of 90 μM to MCF 7/DOX and 5 μM to MDA 231. A control was not treated with doxorubicin. On the very day of analysis, the culture medium in each well was substituted with a fresh medium containing MTT (3-(4,5-dimethylthiazol-2-yl)-2,5-diphenyltetrazolium) (Sigma) at a concentration of 0.5 mg per ml, followed by incubation therein for an additional 4 hrs. After the removal of the medium, 500 μl of DMSO was added to each well and the formazan crystals were dissolved using an orbital shaker. Cell viability was represented as a percentage of a test group to the control. These experiments were done in triplicate and repeated at least three times. For each experiment, the mean of three independent experiments and the standard deviations are given.
(§3) MTT assay was conducted to examine whether glucosamine increases the sensitivity of breast cancer cells to anticancer agents. MCF 7/DOX and MDA 231 cell lines, both resistant to anticancer agents, were treated with doxorubicin and glucosamine (1.0 to 10 mM) for 24 hrs. Controls were not treated with glucosamine, while doxorubicin was administered at concentrations of 5 μM to MDA-MB 231, and at a concentration of 90 μM to MCF-7/DOX.

[2] = tested on: MDA 231 cells (doxorubicin resistant); test: as above; type: cell-based, human
Protocol: as §1, §2, §3

MCF 7 cells = test: MTT cytotoxicity assay, anticancer agent-sensitive line; type: cell-based; conditions: MCF 7, sensitive to anticancer agent
Protocol: as §2
(§4) As measured through an MTT assay, almost all MCF 7 and MDA 468, both sensitive to anticancer agent, died, whereas apoptosis took place in about 50% of the anticancer agent-resistant cell lines.

MDA 468 cells = test: as above; type: cell-based; conditions: MDA 468, sensitive to anticancer agent
Protocol: as §2, §4

[3] = tested on: NF-κB activity in MCF7/DOX cells; test: pNF-κB-SEAP reporter assay; type: cell-based, human; conditions: MCF-7/DOX; glucosamine 5 mM; 24 hrs
Protocol: (§5) MCF7/DOX and MDA231 cell lines were cultured in media supplemented with 10% fetal bovine serum (Gibco BRL), 1 mM sodium pyruvate (Gibco BRL) and 100 U/ml penicillin-streptomycin (Gibco BRL) at 37° C. in a humid 5% CO2 atmosphere. A pNF-κB-SEAP vector was transfected into the cells. 24 hrs after transfection, the cells were cultured in the presence of or absence of glucosamine (represented by GM, 5 mM) for 24 hrs. The cell culture was subjected to an SEAP assay, and the cells, after being harvested, were subjected to a β-galactosidase assay. The values obtained for the SEAP assay were corrected for transfection efficiency with a pGAL plasmid (1 μg). β-Galactosidase activity was measured to correct the SEAP activity. The SEAP assay was conducted according to the procedure set forth by the manufacturer (BD Biosciences Clontech, Co.). […] These experiments were done in triplicate and repeated at least three times. The values of each experiment are the mean of three independent experiments and the standard deviations.

[4] = tested on: NF-κB activity in MDA231 cells; test: pNF-κB-SEAP reporter assay; type: cell-based, human; conditions: MDA-231; glucosamine 5 mM; 24 hrs
Protocol: as §5

I-κBα in MCF7/DOX cells = test: Western blotting against I-κBα, cytoplasm fractions; type: cell-based, human; conditions: MCF-7/DOX; cultured 1 hr; cytoplasm fraction
Protocol: (§6) Glucosamine was analyzed for its effect on I-κBα degradation. For this, MCF7/DOX and MDA231 cells were cultured for 1 hr and cytoplasm fractions thereof were harvested for Western blotting against I-κBα. Western blotting results are shown in the upper panel of FIG. 3B. Western blotting was quantified using a densitometer, and the results are depicted in the lower panel of FIG. 3B. For each value, the mean of three independent experiments and standard deviations are given.

I-κBα in MDA231 cells = test: as above; type: cell-based, human; conditions: MDA-231; cultured 1 hr; cytoplasm fraction
Protocol: as §6

Row | SMILES | apoptosis of cells ([1]; MCF 7/DOX, doxorubicin 90 μM alone) | apoptosis of cells ([2]; MDA 231, doxorubicin 5 μM alone) | cell death (MCF 7 cells) | cell death (MDA 468 cells) | sensitivity to doxorubicin when treated with glucosamine vs not treated ([1]; MCF 7/DOX, doxorubicin 90 μM, glucosamine 1.0 to 10 mM, 24 hrs) | apoptosis frequency, anticancer agent in combination with glucosamine vs alone ([1]; chemoresistant cells, FIG. 1 (MCF/DOX)) | sensitivity to doxorubicin when treated with glucosamine vs not treated ([2]; MDA 231, doxorubicin 5 μM, glucosamine 1.0 to 10 mM, 24 hrs) | apoptosis frequency, anticancer agent in combination with glucosamine vs alone ([2]; chemoresistant cells, FIG. 2 (MDA231)) | NF-κB activity [3] | NF-κB activity [4] | I-κBα level (I-κBα in MCF7/DOX cells) | I-κBα level (I-κBα in MDA231 cells)
1 | COc1cccc2c1C(=O)c1c(O)c3c(c(O)c1C2=O)C[C@@](O)(C(=O)CO)C[C@@H]3O[C@H]1C[C@H](N)[C@H](O)[C@H](C)O1 [doxorubicin, reference compound] | about 50% | about 50% | almost all | almost all |  |  |  |  |  |  |  | 
2 | N[C@H]1C(O)O[C@H](CO)[C@@H](O)[C@@H]1O (stereo partly drawn) [glucosamine] |  |  |  |  | twice as (two times more=three times as) sensitive | twice as frequently | twice as (two times more=three times as) sensitive | twice as frequently | decrease | decrease | increase | increase
